Among the data in a melting point compilation (Tetko et al.; mined from patent text by program, amines drawn as free bases though some values may be those of a salt) are melting point values, retold here.

Molecules are shown by their SMILES.

Usually melting point stands for the temperature of the solid-liquid transition. Consider `COC(=O)CC(NC(=O)C1CC=CCC1)C(C)=O` (stereo not given), for which the melting point lay within 69 to 70 °C.

For the compound `N#Cc1ccc2[nH]cc(-c3nc(-c4cccnc4)cs3)c2c1`, the melting point is 240 °C.

Consider `CS(=O)(=O)c1ccc(-c2cnn(CC(F)(F)F)c(=O)c2N)cc1`, for which the melting point is greater than 260 °C.

For the compound `CCC(=O)Nc1cccc(-c2ccc(=O)[nH]n2)c1`, the melting point is 229 to 230 °C.

With `CCCCOC(=O)C(=O)Nc1ccccn1`, the melting point lay within 35 to 37 °C.

Regarding `Cc1cc(C2=c3ccc(=C4C(=O)c5ccccc5C4=O)cc3OC2=O)cc(C)c1N`, the melting point was greater than 250 °C.

Turning to `c1ccc2c(c1)COc1ccccc1-2`, the melting point turned out to be 97 °C.

Compound `CC(C)c1c(NC(=O)OCc2ccccc2)nc(-c2ccc(F)cc2)n1CCC1CC(O)CC(=O)O1` (stereo not given) gave a melting point of 86 to 90 °C.

Consider `CN(C)C(=O)c1nc(-c2ccccc2)nc2[nH]c3cc(Cl)ccc3c12`, for which the melting point fell in the range of 232 to 233 °C.

In turn, `NNC(=O)C[C@H](O)COCc1ccccc1` came in with a melting point of 96.9 °C.

With `COc1ccc(-c2noc(C3CCCN(C(=O)c4ccccc4)C3)n2)cc1` (stereo not given), the melting point was 121 °C.

`CCCCCCCCCCCCCCCCCc1cc(O)c(CC)c(=O)o1`: the melting point fell in the range of 101 to 102 °C.

`CCN(CC)C(=O)c1ccc2ccccc2c1-c1ccc2ccccc2c1` yielded a melting point of 159 to 161 °C.

As to `O=C(O)CCCOc1cccc2c1Cc1sc(SCCC(c3ccccc3)c3ccccc3)nc1-2`, the melting point lay within 86 to 88 °C.

In turn, `COC(=O)CNC(=S)n1nc(-c2ccc(Cl)cc2)nc1N` registered a melting point of 142 to 145 °C.

`COc1ccc2nc(NC(=O)COC(=O)C(C)C)sc2c1`: the melting point lay within 141 to 142 °C.

As for `CCC1(CC)NC(=O)C(CC)(CC)N1`, the melting point was in the range of 68 to 70 °C.

In turn, `O=c1c2cc(O)ccc2oc2c(CO)ccc(NCCN3CCCC3)c12` showed a melting point of 186 to 190 °C.

As for `N#Cc1cc(C#N)cc(CO)c1`, the melting point is 119 to 120 °C.

The compound `C=CC(c1ncc([N+](=O)[O-])n1C)N(C)C` (stereo not given) showed a melting point of 110 to 113 °C.

Compound `O=C(Nc1ccccc1)N1Cc2sccc2C(O)C1` (stereo not given) registered a melting point of 200 °C.

`CCC(CC)Sc1cc(S(N)(=O)=O)c(N)cc1Cl` had a melting point of 118 to 120 °C.

`O=C1OC(COc2ccc(CCCO)cc2)CN1c1ccc(Cl)cc1` (stereo not given) registered a melting point of 119 to 120 °C.

With `Cc1cccc(NS(=O)(=O)c2ccc(OCc3nc(-c4ccccc4)oc3C)cc2)c1C(=O)O`, the melting point is 167 to 170 °C.

On to `CN1c2ccccc2N(Cc2ccccc2)C(=O)[C@H]2CCC[C@H]21` (relative stereo), for which the melting point lay within 123 to 125 °C.

`COC(=N)N1CCC(c2n[nH]c3cc(Cl)ccc23)CC1` came in with a melting point of 173 to 175 °C.

For the compound `Nc1cc(-c2ccc([N+](=O)[O-])c(N)c2)ccc1[N+](=O)[O-]`, the melting point was 226 °C.

Regarding `N#CC(C#N)(Cc1ccc(Cl)cc1)C1CCCCC1`, the melting point was found to be 108 °C.

`Cc1ccnc(C(=O)c2[nH]c3cc(Cl)ccc3c2NC(=O)CCN(C)C)c1` returned a melting point of 170 to 171 °C.

Consider `CC(C)(C#N)c1cc(Cc2cncnc2)cc(C(C)(C)C#N)c1`, for which the melting point lay within 132 to 134 °C.

`Nc1nc2ccccc2c2c1ncn2CCCCNC(=O)c1cccc2cccnc12` registered a melting point of 91 to 93 °C.

Take `CCCCCCCC=CC1=Nc2ccc(F)cc2C(=O)C1C` (stereo not given): the melting point was in the range of 192 to 193 °C.

`O=C(NO)C(=O)c1ccc(OCCOc2ccc3ccccc3c2)s1` had a melting point of 165 to 167 °C.

On to `CN(C)C=CC(=O)c1cccc(OCC(O)CN2CCN(c3ccc(Cl)cc3)CC2)c1` (stereo not given), for which the melting point was in the range of 144 to 145 °C.

With `COC(=O)c1cccc2nc(N)sc12`, the melting point lay in the range of 232 to 233 °C.

With `CN(C)CCCOc1ccc(-c2nnc(CSCCOc3ccccc3)o2)nc1`, the melting point is 47 to 49 °C.

In turn, `COC(=O)c1sc(Cl)c(Cl)c1O` displayed a melting point of 107 to 108 °C.

Consider `O=C(O)C=CC(=O)NCCCCCCCCCCCCCCCCCC(=O)O`, for which the melting point lay within 144 to 148 °C.

Consider `COc1cc(OC)cc(C(NCC(=O)Nc2c(C(C)C)cccc2C(C)C)c2ccccc2)c1` (stereo not given), for which the melting point fell in the range of 111 to 112 °C.

In turn, `CCOC(=O)C(C)(C)n1c(=O)[nH]c2ccc(F)cc2c1=O` showed a melting point of 167 to 169 °C.

On to `O=C(O)c1cn(CCF)c2nc(N3CCNCC3)c(F)cc2c1=O`, for which the melting point lay within 223 to 225 °C.

`CC(=O)OCc1cc2c(Cl)ccc(-n3c(=O)cc(C(F)(F)F)n(C)c3=O)c2o1`: the melting point fell in the range of 135 to 138 °C.

Take `O=C1c2cc3ccccc3cc2OC12CC2`: the melting point was in the range of 127 to 129 °C.

`Oc1nc(Nc2ccc(O)c(Cl)c2)cc(-c2ccccc2)n1` gave a melting point of 280 to 282 °C.

The compound `CC(C)CNC(=O)/C=C/c1cccc(Cl)c1` gave a melting point of 112 °C.

As for `CCOc1cc(CCC2OC(=O)NC2=O)ccc1OCc1ccccc1` (stereo not given), the melting point is 143 to 144 °C.

`OC1(c2ccc(F)cc2)CCC2CNCCC2C1` (stereo not given): the melting point fell in the range of 174 to 175 °C.

As to `COC(=O)C(Cc1ccccc1)Oc1ccc(-c2ccc(-c3c(Cc4ccccc4)oc4ccccc34)cc2)cc1` (stereo not given), the melting point was 67 to 69 °C.

For `CC[C@@H](CN1CCCc2cc(Br)ccc21)NS(=O)(=O)c1c(C)cc(C)cc1C`, the melting point stood at 135 °C.

Compound `C[C@@H]1Oc2ccccc2C(=O)[C@H]1n1ccnc1` (relative stereo) returned a melting point of 144 to 146 °C.

`CC(=O)c1cn(S(=O)(=O)c2ccccc2)c2nccc(OCC3CCCCC3)c12` registered a melting point of 138 to 140 °C.

For the compound `CCCC(=O)Nc1n[nH]c2c([N+](=O)[O-])c(Br)ccc12`, the melting point came to 248 °C.

`O=[N+]([O-])c1ccc(O)cc1SCCO` registered a melting point of 161 °C.

Take `CN1C(=O)[C@@H](NC(=O)C2CCCCC2)N=C(c2ccccc2)c2ccccc21`: the melting point lay within 212 to 214 °C.

As for `CCC(O)(CC(N)=O)c1ccc(Cl)c(Cl)c1` (stereo not given), the melting point lay within 99 to 100 °C.

For `COC(=O)c1ccc(S(C)(=O)=O)c(C2=NOC(C)(OC)C2)c1Cl` (stereo not given), the melting point was 100 to 105 °C.

Consider `Cc1ccc(C2COc3c(ccc(O)c3O)C2)cc1` (stereo not given), for which the melting point was 164 °C.

Compound `Cc1ccc(C)c2c(=O)n(CCCN3CC=C(c4ccc(Cl)cc4)CC3)c(=O)[nH]c12` yielded a melting point of 212 to 220 °C.

As to `COc1cn(C(C)=O)c2ccc(F)cc12`, the melting point lay in the range of 124 to 125 °C.

Consider `COc1ccc(C(F)(F)C(F)(F)F)cc1C(C)=O`, for which the melting point was 47 °C.

`O=P(O)(O)Oc1cccc(-c2nc3sccn3c2-c2cccc(N[C@@H]3CCCN(S(=O)(=O)c4ccc(Cl)cc4)C3)c2)c1` had a melting point of 239 to 245 °C.

Compound `CC1(C)Oc2ccc(C(N)=O)cc2[C@H](NCCc2ccccc2)[C@H]1O` (relative stereo) yielded a melting point of 162 °C.

The compound `O=C1N(Cc2ncccc2C(F)(F)F)c2ccccc2C12COc1c(Cl)cc3c(c12)OCCO3` (stereo not given) had a melting point of 273 to 275 °C.

In turn, `O=C(c1ccccc1)c1nc2cnc3ccc(F)cc3c2[nH]1` gave a melting point of 255 to 256 °C.

`CC(Cl)c1nc2cccnc2[nH]1` (stereo not given): the melting point is 132 °C.

For `CCOc1ccc(C=NOCCO)cn1`, the melting point was 52 to 54 °C.

`Cc1ccc(-c2nc3ccc(CN4CCN(C)CC4)cc3[nH]2)cc1C#Cc1ccc(NC2CC2)nn1` showed a melting point of 145 to 146 °C.

In turn, `CC(C)(Cl)Cn1ncc(OCc2ccc(I)nc2)c(Cl)c1=O` returned a melting point of 119 to 123 °C.

As for `Cc1nc2c(N)nc3ccccc3c2n1CCCCOCCCc1ccccc1`, the melting point fell in the range of 105 to 106 °C.

The compound `Nc1ncnc2c1nnn2C1CCC(O)C1O` (stereo not given) registered a melting point of 244 to 245 °C.

For the compound `Cn1cc(C(=O)c2ccc(Cl)cc2)cc1C(=O)CCl`, the melting point was 130 to 132 °C.

On to `O=C(N[C@@H](CO)c1ccccc1)c1cccc(I)c1`, for which the melting point is 154 to 156 °C.

As to `COc1cc2c(cc1Nc1ncc(Cl)c(N[C@@H]3[C@H](C(N)=O)[C@H]4C=C[C@@H]3C4)n1)CCOC(=O)N2C`, the melting point was 168 to 170 °C.

The compound `COC(=O)c1cccc2c1ccn2S(=O)(=O)c1ccc(C)cc1` yielded a melting point of 145 to 147 °C.

`COc1ccc(CC(=O)NCCc2ccc([N+](=O)[O-])cc2)cc1` yielded a melting point of 109 to 110 °C.

Regarding `N#Cc1cc([N+](=O)[O-])ccc1N1CCOCC1`, the melting point fell in the range of 138 to 140 °C.

For `CC(C)n1nc(-c2c(NCc3ccccc3)nc(N)nc2-c2ccc(F)cc2)ccc1=O`, the melting point was 191 to 192 °C.

As for `O=C(Cc1c[nH]c2ccccc12)Nc1ccc(-n2nc(C3CC3)cc2C2CC2)cc1`, the melting point fell in the range of 158 to 164 °C.

For `NC(Cc1c[nH]c2cc(Cl)cc(Cl)c12)C(=O)OCCC(=O)OCc1ccccc1` (stereo not given), the melting point lay in the range of 151 to 153 °C.

For the compound `NCC1COc2cc(Cl)cc(-c3ccccc3F)c2N1` (stereo not given), the melting point was 95 °C.

For `CCOCC1(F)CCN(c2ccc(N3C[C@H](CNC(C)=O)OC3=O)cc2F)CC1`, the melting point lay within 109 to 111 °C.

`Cc1c(N2C(=O)[C@H]3[C@@H](O)CCN3C2=O)ccc(C#N)c1Cl` had a melting point of 237 to 238 °C.

Take `O=C(CCc1ccccc1)Nc1ccc(CN2C(=O)[C@H]3CCC[C@H]3N(C(=O)CN3C(=O)c4ccccc4C3=O)c3ccccc32)cc1` (relative stereo): the melting point is 222 °C.

For `NC1N=C(Cl)C=C(Cl)N1c1c([N+](=O)[O-])cc([N+](=O)[O-])cc1C(F)(F)F` (stereo not given), the melting point fell in the range of 170 to 173 °C.

As to `COC1=C(c2ccccc2)C(CCC(=O)O)OC1=O` (stereo not given), the melting point fell in the range of 126 to 127 °C.

`COc1ccc(C2(C#Cc3cnc(NC(C)=O)nc3)CCC(=O)CC2)cc1OC1CCCC1` returned a melting point of 170 to 171 °C.

`CCCCn1c(Cc2cc(OC)ccc2Cl)nc2c(N)ncnc21` came in with a melting point of 138 to 139 °C.

The compound `CC(O)c1onc(-c2ccccc2Cl)c1C(=O)c1nnn(Cc2cc(C(F)(F)F)cc(C(F)(F)F)c2)c1N1CCOCC1` (stereo not given) came in with a melting point of 145 to 146 °C.

In turn, `CN1CCCCC1COC(=O)c1cccc(NC(=O)C(CS)Cc2ccccc2)c1` (stereo not given) showed a melting point of 68 to 69 °C.

Compound `C#CCOc1cc(C)nc(-c2cccc(CCC)n2)n1` registered a melting point of 92.5 °C.
